The results in this text go back to patent US20170367338A1, “COMPOSITIONS AND METHODS FOR IMPROVING AGRONOMIC CHARACTERISTICS OF PLANTS” (MONSANTO TECHNOLOGY LLC, priority 2014, published 2017).

Values after ≈ are worked out from the molar mass of the structure shown. Like-named read-outs stand apart in the source and are kept apart here.

Common to all, as to assay type: in vivo
One assay concerns C. elegans. In words: Three day C. elegans well assay. The following applies: for EC50: Caenorhabditis elegans. The protocol: Various compounds were tested for nematicidal activity against C. elegans using contact assays in wells. The assays were performed as described below. The test compounds were solubilized in DMSO at 10 mg/ml to create 100× stock solutions. A dilution series was created by diluting the stock solution with DMSO. For each well assay 4 ul of the appropriate dilution is added to a well of a test plate. A 400 ul aliquot of bacterial stock (in M9 buffer with ampicillin and nystatin) are added to each well of the test plate. Worms are added and the test plate placed on a rotary shaker and held at 20° C. Worms are examined and scored at 4 hrs, 24 hrs, 48 hrs and 72 hours. L1 worms and L4 worms were used in the assay. L1 worms are prepared by plating eggs on a plate without a bacterial feeding layer. The eggs hatch and arrest at the L1 stage. This L1 stage population is then used to create a stock for the experiments. To create an L4 stage stock a small number of worms are taken from an overgrown and starved plate of worms and seeded on a plate with a bacterial feeder layer. A 25 ul aliquot of worms is added to each well in the assay.

Assay [1] relates to Heterodera glycines (SCN). Nature of the assay: Seed treatment test of soybean cyst nematode on soybean. The following applies: Heterodera glycines, 672 h, test b, read-out: percent cyst reduction relative to control blank treatment; for pest or weed control at 0.375 mg/g: 0.375 mg ai/gram seed; for pest or weed control at 1.5 mg/g: 1.5 mg ai/gram seed. As for the experimental part:
For a given concentration the chemical is dissolved in 500 ul of acetone and one gram of cucumber seed (RKN test) or soybean seed (SCN test) is added (e.g., 20 mg active ingredient in 500 ul acetone plus 1 gram of seed). The seed solutions are agitated until all seeds were thoroughly covered with the chemical solution. The acetone is then allowed to evaporate by air drying the seeds. The seeds are planted in 2-inch pots containing sandy soil and then the pots are inoculated with 1000 Meloidogyne incognita (RKN) or 1000 Heterodera glycines (SCN) eggs per pot three days after planting. Plants are rated for galling 14 days after egg inoculation for RKN or 28 days after egg inoculation for SCN.

Another assay has as its system Meloidogyne incognita. Nature of the assay: Summer field evaluation of pre-plant incorporated compounds on squash. The following applies: 2 kg/ha PPI, squash. The protocol:
Test plots of 33 cm diameter holes were bored 41 cm deep into clay soil and filled with a mixture of 80% sand and 20% silt loam soil. Technical compound for each treatment was dissolved in 50 ml acetone containing 250 ul of Triton X-100 surfactant. This solution was added to 450 ml water and poured onto 95 liters of sand/soil mixture in a rotating drum mixer. While continuing to rotate the mixing drum 66 grams of chopped, galled, tomato roots was added and thoroughly distributed. The treated soil was sufficient to fill the top 15 cm of each of the 6 replicate plots, thus simulating a PPI treatment. The plots were then watered lightly and a mixture of M. incognita eggs and larvae were injected 5 cm deep at 5 points within the plot (100k eggs/larvae in 10m1 per plot). Three-week old squash (cv. Liberator III) with 1 fully expanded true leaf was planted 4 days after soil treatment, one per plot.

[2] abbreviates: 48 h, L1 larvae, two days of exposure, read-out: EC50 L1 2D.
[3] abbreviates: 48 h, L4 larvae, two days of exposure, read-out: EC50 L4 2D.
Setting [4] is: 72 h, L1 larvae, three days of exposure, read-out: EC50 L1 3D.
Setting [5] is: 72 h, L4 larvae, three days, effects on the second generation larvae, read-out: EC50 L4 3D (F1).
[6] abbreviates: 24 h, L1 larvae, one day of exposure, read-out: EC50 L1 1D.
Where [7] appears, read: 24 h, L4 larvae, one day of exposure, read-out: EC50 L4 1D.

With `Fc1ccc(-c2noc(-c3cccs3)n2)c(F)c1` [compound 5847], the 50% effective concentration (EC50) (in general, the concentration that produces a half-maximal response) was 0.4 µg/mL (≈ 1.51 µM) in the assay on C. elegans (setting [2]), 1.6 µg/mL (≈ 6.05 µM) with C. elegans (setting [3]), 0.4 µg/mL (≈ 1.51 µM) in the assay on C. elegans (setting [4]) and 1.6 µg/mL (≈ 6.05 µM) in the assay with C. elegans (setting [5]). Further, the “EC50 L1 1D” value in the assay with C. elegans (L1 larvae, one day of exposure) was “no”. Also, the “EC50 L4 1D” value in the assay on C. elegans (L4 larvae, one day of exposure) was “no”. Further, in assay [1], the pest or weed control at 0.375 mg/g came to 66%. In assay [1], the pest or weed control at 1.5 mg/g is 80%.
As to `Fc1cc(Br)ccc1-c1noc(-c2cccs2)n1` [compound 5848], the EC50 with C. elegans (setting [6]) turned out to be 1.6 µg/mL (≈ 4.92 µM); with C. elegans (setting [7]), 1.6 µg/mL (≈ 4.92 µM); in the assay on C. elegans (setting [2]), 0.4 µg/mL (≈ 1.23 µM); with C. elegans (setting [3]), 1.6 µg/mL (≈ 4.92 µM); in the assay on C. elegans (setting [4]) it was 0.4 µg/mL (≈ 1.23 µM); with C. elegans (setting [5]) it was 1.6 µg/mL (≈ 4.92 µM).
On to `Fc1ccc(-c2noc(-c3ccco3)n2)c(F)c1` [compound 5849], for which the EC50 was 6.3 µg/mL (≈ 25.4 µM) with C. elegans (setting [6]), 0.4 µg/mL (≈ 1.61 µM) in the assay on C. elegans (setting [2]), 1.6 µg/mL (≈ 6.45 µM) in the assay on C. elegans (setting [4]) and 6.3 µg/mL (≈ 25.4 µM) in the assay with C. elegans (setting [5]). The “EC50 L4 1D” value with C. elegans (L4 larvae, one day of exposure) is “no”.
Consider `Fc1cc(Br)ccc1-c1noc(-c2ccco2)n1` [compound 5850], for which the concentration giving a half-maximal response (EC50) came out at 1.6 µg/mL (≈ 5.18 µM) in the assay with C. elegans (setting [6]); 1.6 µg/mL (≈ 5.18 µM) in the assay on C. elegans (setting [7]); 0.4 µg/mL (≈ 1.29 µM) in the assay with C. elegans (setting [2]); 1.6 µg/mL (≈ 5.18 µM) with C. elegans (setting [3]); 0.4 µg/mL (≈ 1.29 µM) in the assay on C. elegans (setting [4]); 1.6 µg/mL (≈ 5.18 µM) with C. elegans (setting [5]).
As to `Fc1cc(Cl)ccc1-c1noc(-c2cccs2)n1` [compound 5860], the 50% effective concentration (EC50) in the assay with C. elegans (setting [6]) came to 1.6 µg/mL (≈ 5.7 µM); in the assay with C. elegans (setting [7]), 1.6 µg/mL (≈ 5.7 µM); in the assay with C. elegans (setting [2]), 0.4 µg/mL (≈ 1.42 µM); in the assay on C. elegans (setting [3]), 1.6 µg/mL (≈ 5.7 µM); in the assay on C. elegans (setting [4]) it was 0.4 µg/mL (≈ 1.42 µM); in the assay on C. elegans (setting [5]), 1.6 µg/mL (≈ 5.7 µM).
For the compound `Fc1cc(Cl)ccc1-c1noc(-c2ccco2)n1` [compound 5861], the EC50 with C. elegans (setting [6]) turned out to be 0.4 µg/mL (≈ 1.51 µM); in the assay with C. elegans (setting [7]) it was 1.6 µg/mL (≈ 6.05 µM); in the assay with C. elegans (setting [2]), 0.4 µg/mL (≈ 1.51 µM); in the assay on C. elegans (setting [3]), 1.6 µg/mL (≈ 6.05 µM); in the assay on C. elegans (setting [4]) it was 0.4 µg/mL (≈ 1.51 µM); in the assay on C. elegans (setting [5]), 1.6 µg/mL (≈ 6.05 µM).
Regarding `Fc1cc(F)c(-c2noc(-c3cccs3)n2)c(F)c1` [compound 5878], in assay [1], the pest or weed control at 0.375 mg/g is 43% and the pest or weed control at 1.5 mg/g stood at 77%.
For `Clc1ccc(-c2nsc(-c3cccs3)n2)cc1` [compound 5905], the EC50 with C. elegans (setting [6]), with C. elegans (setting [2]) and in the assay with C. elegans (setting [4]) was 0.4 µg/mL (≈ 1.43 µM) in each case.
Take `Clc1ccc(-c2nsc(-c3ccco3)n2)cc1` [compound 5906]: the EC50 in the assay on C. elegans (setting [6]), in the assay on C. elegans (setting [2]) and with C. elegans (setting [4]) was 0.4 µg/mL (≈ 1.52 µM) in each case.
On to `Fc1cc(Cl)ccc1-c1nsc(-c2ccco2)n1` [compound 5953], for which, in assay [1], the pest or weed control at 0.375 mg/g stood at 44% and the pest or weed control at 1.5 mg/g stood at 77%.
As to `CCOP(=O)(SC(C)CC)N1CCSC1=O` (stereo not drawn) [fosthiazate], in the assay on Meloidogyne incognita, the “0-3 vigor 16DAP” value is given as 3.0, the “0-3 vigor 21DAP” value stood at 3.0, the “feeder root (3 = ave) 31DAP” value was 2.3 and the “gall % 31DAP” value worked out at 5%. Besides, in the assay on Meloidogyne incognita, the “root wgt (g) 31DAP” value was determined as 26.4 g, the “top wgt (lbs) 31DAP” value came out at 2.01 lbs and the “total fruit (lbs)” value amounted to 1.25 lbs.
